Experimental data reported in the CheMixHub viscosity set.
± gives the uncertainty stated by the source.

Assay: xn = mol fraction of the nth substance listed

CCCNCCC + CCCCCO
viscosity [mPa·s], 101.33 kPa
Details	x1 = 0.0952	x1 = 0.1918	x1 = 0.2881	x1 = 0.3825	x1 = 0.5157	x1 = 0.616	x1 = 0.7094	x1 = 0.8061	x1 = 0.9023
303.15 K	2.51 ± 0.029	2.185 ± 0.026	1.875 ± 0.022	1.593 ± 0.019	1.244 ± 0.015	1.034 ± 0.013	0.8687 ± 0.011	0.7254 ± 0.0096	0.6098 ± 0.0083
313.15 K	2.051 ± 0.024	1.767 ± 0.021	1.51 ± 0.018	1.281 ± 0.016	1.02 ± 0.013	0.8452 ± 0.011	0.7187 ± 0.0095	0.6045 ± 0.0083	0.5061 ± 0.0072

CC(C)O + CCCO
viscosity [mPa·s], 101 kPa
Details	293.15 K	298.15 K	303.15 K	313.15 K	323.15 K
x2 = 0.1001	2.369 ± 0.017	–	1.776 ± 0.014	1.349 ± 0.013	1.048 ± 0.012
x2 = 0.172	–	2.066 ± 0.055	–	–	–
x2 = 0.2006	2.359 ± 0.017	–	1.777 ± 0.014	1.36 ± 0.013	1.066 ± 0.012
x2 = 0.2956	2.344 ± 0.017	–	1.773 ± 0.014	1.365 ± 0.013	1.077 ± 0.012
x2 = 0.33	–	1.997 ± 0.053	–	–	–
x2 = 0.3999	2.322 ± 0.016	–	1.766 ± 0.014	1.368 ± 0.013	1.084 ± 0.012
x2 = 0.4993	2.3 ± 0.016	–	1.758 ± 0.014	1.368 ± 0.013	1.086 ± 0.012
x2 = 0.5	–	2.02 ± 0.053	–	–	–
x2 = 0.6	2.278 ± 0.016	–	1.75 ± 0.014	1.367 ± 0.013	1.088 ± 0.012
x2 = 0.665	–	1.985 ± 0.052	–	–	–
x2 = 0.6973	2.258 ± 0.016	–	1.744 ± 0.014	1.368 ± 0.013	1.089 ± 0.012
x2 = 0.754	–	1.985 ± 0.052	–	–	–
x2 = 0.7993	2.238 ± 0.016	–	1.739 ± 0.014	1.368 ± 0.013	1.091 ± 0.012
x2 = 0.826	–	1.972 ± 0.052	–	–	–
x2 = 0.8994	2.219 ± 0.016	–	1.734 ± 0.014	1.369 ± 0.013	1.096 ± 0.012

CCCC[n+]1ccn(C)c1.N#C[S-] + c1ccsc1
100 kPa
Details	viscosity [mPa·s]
298.15 K, x1 = 0.754	31.95 ± 1.7
308.15 K, x1 = 0.857	28.75 ± 1.5

CCCCCCCCCCCCCCCCCCCCCCCC + CCCCCCCCCC
Details	viscosity [mPa·s]
313.2 K, 101.3 kPa, x2 = 0.8	1.48 ± 0.02

Cc1cccc([N+](=O)[O-])c1 + Cc1ccccc1C
308.15 K, 101.33 kPa
Details	viscosity [mPa·s]
x2 = 0.1044	1.384 ± 0.009
x2 = 0.2068	1.211 ± 0.008
x2 = 0.2995	1.102 ± 0.007
x2 = 0.4028	1.01 ± 0.007
x2 = 0.5015	0.944 ± 0.006
x2 = 0.6123	0.867 ± 0.006
x2 = 0.7055	0.81 ± 0.005
x2 = 0.8268	0.742 ± 0.005
x2 = 0.9132	0.698 ± 0.005

O=C(O)c1cccc([N+](=O)[O-])c1 + CCCO
viscosity [mPa·s], 101 kPa
Details	x1 = 0.219	x1 = 0.22	x1 = 0.244	x1 = 0.261	x1 = 0.2797	x1 = 0.2805
318.15 K	3.007 ± 0.08	3.007 ± 0.031	3.286 ± 0.034	3.62 ± 0.037	3.951 ± 0.041	3.95 ± 0.1
323.15 K	2.632 ± 0.07	–	–	–	–	3.456 ± 0.092

CNS(C)(=O)=O + CC(=O)N(C)C
303.15 K, 101.33 kPa
Details	viscosity [mPa·s]
x1 = 0.1009	1.104 ± 0.029
x1 = 0.2022	1.473 ± 0.039
x1 = 0.2303	1.578 ± 0.041
x1 = 0.4082	2.571 ± 0.067
x1 = 0.4802	3.127 ± 0.082
x1 = 0.6009	4.202 ± 0.11
x1 = 0.7019	5.204 ± 0.14
x1 = 0.7958	6.184 ± 0.16
x1 = 0.8966	7.185 ± 0.19

CCOC(=O)[C@@H](O)[C@H](O)C(=O)OCC + CC(C)CCO
viscosity [mPa·s], 101 kPa
Details	x1 = 0.1	x1 = 0.2	x1 = 0.3	x1 = 0.4001	x1 = 0.5	x1 = 0.6001	x1 = 0.6999	x1 = 0.7997	x1 = 0.8998
293.15 K	5.227 ± 0.049	7.032 ± 0.065	9.91 ± 0.092	13.58 ± 0.12	20.31 ± 0.19	31.03 ± 0.29	46.13 ± 0.43	74.54 ± 0.76	129.6 ± 1.9
298.15 K	4.438 ± 0.042	5.859 ± 0.055	8.123 ± 0.075	10.83 ± 0.1	15.81 ± 0.15	23.2 ± 0.21	33.35 ± 0.31	51.5 ± 0.45	84.95 ± 0.94
303.15 K	3.768 ± 0.036	4.88 ± 0.046	6.638 ± 0.062	8.752 ± 0.081	12.37 ± 0.11	17.66 ± 0.16	24.71 ± 0.23	36.84 ± 0.34	58.14 ± 0.52
308.15 K	3.225 ± 0.031	4.138 ± 0.039	5.497 ± 0.051	7.134 ± 0.066	9.862 ± 0.091	13.75 ± 0.13	18.79 ± 0.17	27.17 ± 0.25	41.31 ± 0.38
313.15 K	2.774 ± 0.026	3.487 ± 0.033	4.567 ± 0.043	5.855 ± 0.055	7.945 ± 0.074	10.86 ± 0.1	14.56 ± 0.13	20.53 ± 0.19	30.25 ± 0.28
318.15 K	2.416 ± 0.023	3.02 ± 0.029	3.904 ± 0.037	4.935 ± 0.046	6.58 ± 0.061	8.824 ± 0.082	11.61 ± 0.11	15.99 ± 0.15	22.88 ± 0.21
323.15 K	2.13 ± 0.021	2.649 ± 0.025	3.374 ± 0.032	4.215 ± 0.04	5.529 ± 0.051	7.295 ± 0.068	9.449 ± 0.087	12.74 ± 0.12	17.8 ± 0.16
